Reference: ChEMBL document CHEMBL4311959, “Discovery of a potent p38α/MAPK14 kinase inhibitor: Synthesis, in vitro/in vivo biological evaluation, and docking studies” (Eur J Med Chem, 2019)
pEC50, pIC50: −log10 of the molar value. Values belong to the molecule of their own block, whether it stands above or below them.

Legend:
Rattus norvegicus = assay: Antiinflammatory activity in Sprague-Dawley rat assessed as inhibition of carrageenan-induced paw edema at 50 mg/kg, ip administered 1 hr before carrageenan stimulation and measured after 3 hrs relative to control; format: functional
[1] = biological target: T1, Mitogen-activated protein kinase 14 (Homo sapiens, UniProt Q16539); assay: Inhibition of human p38alpha using MBP as substrate by [gamma-33P]-ATP assay
T1 sequence (Q16539 whole entry): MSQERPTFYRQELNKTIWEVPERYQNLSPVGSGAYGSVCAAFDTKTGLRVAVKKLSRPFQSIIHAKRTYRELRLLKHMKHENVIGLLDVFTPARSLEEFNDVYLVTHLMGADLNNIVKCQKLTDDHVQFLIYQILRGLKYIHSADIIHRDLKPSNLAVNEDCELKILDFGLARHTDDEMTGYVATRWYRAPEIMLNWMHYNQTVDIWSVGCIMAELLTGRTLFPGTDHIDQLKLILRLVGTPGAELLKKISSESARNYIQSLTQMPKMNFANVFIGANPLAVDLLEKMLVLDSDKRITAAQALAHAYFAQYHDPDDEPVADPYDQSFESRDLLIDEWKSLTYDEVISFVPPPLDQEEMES

THP-1 = assay: Inhibition of LPS-induced TNFalpha production in human THP1 cells incubated for 1 hr followed by LPS stimulation and measured after 4 hrs by TR-FRET method; format: functional, cell-based
[2] = biological target: T1, Mitogen-activated protein kinase 14; assay: Inhibition of p38alpha (unknown origin)
[3] = Stability in human plasma assessed as remaining compound at 10 uM incubated for 30 mins by LC-MS analysis; format: ADME, cell-free; conditions: read-out: Stability
[4] = Stability in human plasma assessed as remaining compound at 10 uM incubated for 120 mins by LC-MS analysis; format: ADME, cell-free; conditions: read-out: Stability
[5] = Stability in rat plasma assessed as remaining compound at 10 uM incubated for 30 mins by LC-MS analysis; format: ADME, cell-free; conditions: read-out: Stability
[6] = Stability in rat plasma assessed as remaining compound at 10 uM incubated for 120 mins by LC-MS analysis; format: ADME, cell-free; conditions: read-out: Stability
[7] = biological target: T1, Mitogen-activated protein kinase 14; assay: Inhibition of recombinant Nanoluc-tagged p38alpha (unknown origin) expressed in HEK293 cells incubated for 2 to 3 mins by NanoBRET assay; format: cell-based
[8] = biological target: PI3-kinase p110-alpha/p85-alpha (Homo sapiens) (UniProt P27986+P42336); assay: Inhibition of human PI3K (p110alpha/p85alpha) at 10 uM using PI as substrate by ADP-Glo Assay relative to control; format: protein-complex assay
[9] = biological target: Platelet-derived growth factor receptor beta (Homo sapiens) (UniProt P09619); assay: Inhibition of human PDGFRbeta at 10 uM using poly[Glu:Tyr] (4:1) as substrate by [gamma-33P]-ATP assay relative to control
[10] = biological target: Mitogen-activated protein kinase 8 (Homo sapiens) (UniProt P45983); assay: Inhibition of human JNK1 at 10 uM using ATF2 as substrate by [gamma-33P]-ATP assay relative to control
[11] = biological target: Receptor tyrosine-protein kinase erbB-2 (Homo sapiens) (UniProt P04626); assay: Inhibition of human ERBB2 at 10 uM using poly[Glu:Tyr] (4:1) as substrate by [gamma-33P]-ATP assay relative to control
[12] = biological target: Receptor tyrosine-protein kinase erbB-4 (Homo sapiens) (UniProt Q15303); assay: Inhibition of human ERBB4 at 10 uM using poly[Glu:Tyr] (4:1) as substrate by [gamma-33P]-ATP assay relative to control
[13] = biological target: Mitogen-activated protein kinase 1 (Homo sapiens) (UniProt P28482); assay: Inhibition of human ERK2 at 10 uM using MBP as substrate by [gamma-33P]-ATP assay relative to control
[14] = biological target: Fibroblast growth factor receptor 1 (Homo sapiens) (UniProt P11362); assay: Inhibition of human FGFR1 at 10 uM using KKKSPGEYVNIEFG as substrate by [gamma-33P]-ATP assay relative to control
Sequence of Fibroblast growth factor receptor 1 (Homo sapiens) (P11362 22-822 limits assumed): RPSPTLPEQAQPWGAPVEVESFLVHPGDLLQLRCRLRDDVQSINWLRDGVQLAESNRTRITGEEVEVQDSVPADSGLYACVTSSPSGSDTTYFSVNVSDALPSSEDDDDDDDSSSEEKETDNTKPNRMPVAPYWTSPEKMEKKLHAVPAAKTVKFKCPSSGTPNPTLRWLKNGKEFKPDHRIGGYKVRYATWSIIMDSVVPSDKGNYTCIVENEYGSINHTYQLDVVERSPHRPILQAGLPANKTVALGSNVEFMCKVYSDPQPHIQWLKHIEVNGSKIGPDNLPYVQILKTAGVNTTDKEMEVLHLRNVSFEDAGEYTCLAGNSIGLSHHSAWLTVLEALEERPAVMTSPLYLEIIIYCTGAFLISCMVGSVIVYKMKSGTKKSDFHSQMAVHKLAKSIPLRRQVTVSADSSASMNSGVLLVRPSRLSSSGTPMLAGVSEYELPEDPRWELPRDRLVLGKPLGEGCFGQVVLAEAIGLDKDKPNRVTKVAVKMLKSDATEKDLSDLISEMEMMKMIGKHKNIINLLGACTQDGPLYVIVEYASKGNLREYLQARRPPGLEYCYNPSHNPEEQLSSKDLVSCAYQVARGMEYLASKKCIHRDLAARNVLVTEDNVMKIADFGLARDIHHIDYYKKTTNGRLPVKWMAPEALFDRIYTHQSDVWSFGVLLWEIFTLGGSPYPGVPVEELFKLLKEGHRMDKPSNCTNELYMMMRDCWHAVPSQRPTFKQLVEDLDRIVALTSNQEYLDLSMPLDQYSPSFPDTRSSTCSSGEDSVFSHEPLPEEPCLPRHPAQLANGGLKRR

[15] = biological target: Receptor-type tyrosine-protein kinase FLT3 (Homo sapiens) (UniProt P36888); assay: Inhibition of human FLT3 at 10 uM using EAIYAAPFAKKK as substrate by [gamma-33P]-ATP assay relative to control
[16] = biological target: Macrophage colony-stimulating factor 1 receptor (Homo sapiens) (UniProt P07333); assay: Inhibition of human FMS at 10 uM using poly[Glu:Tyr] (4:1) as substrate by [gamma-33P]-ATP assay relative to control
[17] = biological target: Tyrosine-protein kinase JAK1 (Homo sapiens) (UniProt P23458); assay: Inhibition of human JAK1 at 10 uM using poly[Glu:Tyr] (4:1) as substrate by [gamma-33P]-ATP assay relative to control
[18] = biological target: Tyrosine-protein kinase JAK2 (Homo sapiens) (UniProt O60674); assay: Inhibition of human JAK2 at 10 uM using poly[Glu:Tyr] (4:1) as substrate by [gamma-33P]-ATP assay relative to control
[19] = biological target: T1, Mitogen-activated protein kinase 14; assay: Inhibition of human p38alpha at 10 uM using MBP as substrate by [gamma-33P]-ATP assay relative to control
[20] = biological target: Vascular endothelial growth factor receptor 2 (Homo sapiens) (UniProt P35968); assay: Inhibition of human KDR at 10 uM using poly[Glu:Tyr] (4:1) as substrate by [gamma-33P]-ATP assay relative to control
[21] = biological target: Dual specificity mitogen-activated protein kinase kinase 1 (Homo sapiens) (UniProt Q02750); assay: Inhibition of human MEK1 at 10 uM using ERK2 as substrate by [gamma-33P]-ATP assay relative to control
Sequence of Dual specificity mitogen-activated protein kinase kinase 1 (Homo sapiens) (Q02750 whole entry): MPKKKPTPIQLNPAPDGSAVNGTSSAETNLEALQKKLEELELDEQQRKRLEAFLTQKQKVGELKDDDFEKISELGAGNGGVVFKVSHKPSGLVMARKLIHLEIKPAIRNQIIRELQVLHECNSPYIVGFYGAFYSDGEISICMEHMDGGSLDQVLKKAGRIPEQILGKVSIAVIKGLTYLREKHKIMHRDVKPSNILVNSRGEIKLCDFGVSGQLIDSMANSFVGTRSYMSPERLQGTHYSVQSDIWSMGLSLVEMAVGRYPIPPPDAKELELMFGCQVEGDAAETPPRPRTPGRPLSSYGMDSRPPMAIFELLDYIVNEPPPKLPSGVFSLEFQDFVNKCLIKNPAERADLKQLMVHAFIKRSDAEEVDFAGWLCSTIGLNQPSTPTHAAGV

[22] = biological target: Serine/threonine-protein kinase B-raf (Homo sapiens) (UniProt P15056); assay: Inhibition of human BRAF at 10 uM using MEK1 (K97R) as substrate by [gamma-33P]-ATP assay relative to control
Sequence of Serine/threonine-protein kinase B-raf (Homo sapiens) (P15056 whole entry): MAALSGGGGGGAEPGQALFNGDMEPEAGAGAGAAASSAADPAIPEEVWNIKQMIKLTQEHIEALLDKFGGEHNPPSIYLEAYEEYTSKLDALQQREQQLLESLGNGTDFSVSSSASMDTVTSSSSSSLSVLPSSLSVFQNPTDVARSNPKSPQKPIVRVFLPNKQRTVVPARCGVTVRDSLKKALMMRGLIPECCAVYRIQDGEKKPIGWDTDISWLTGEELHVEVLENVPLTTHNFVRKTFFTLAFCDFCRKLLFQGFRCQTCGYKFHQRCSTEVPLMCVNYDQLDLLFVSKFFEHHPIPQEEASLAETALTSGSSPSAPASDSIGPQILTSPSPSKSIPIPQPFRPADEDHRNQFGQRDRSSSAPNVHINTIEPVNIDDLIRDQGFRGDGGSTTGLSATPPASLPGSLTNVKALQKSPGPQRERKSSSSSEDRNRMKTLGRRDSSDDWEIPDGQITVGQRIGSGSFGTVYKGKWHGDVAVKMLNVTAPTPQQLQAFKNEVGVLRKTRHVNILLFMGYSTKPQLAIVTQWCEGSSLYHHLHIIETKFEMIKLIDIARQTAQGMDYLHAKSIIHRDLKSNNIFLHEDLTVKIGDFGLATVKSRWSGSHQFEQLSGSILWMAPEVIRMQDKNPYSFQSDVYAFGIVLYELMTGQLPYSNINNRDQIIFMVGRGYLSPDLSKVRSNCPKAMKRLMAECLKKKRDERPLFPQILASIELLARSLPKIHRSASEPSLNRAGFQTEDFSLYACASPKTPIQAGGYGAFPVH

[23] = test system: Serine/threonine-protein kinase B-raf (Homo sapiens), P15056 [V600E]; assay: Inhibition of human BRAF V600E mutant at 10 uM using MEK1 (K97R) as substrate by [gamma-33P]-ATP assay relative to control
Sequence of Serine/threonine-protein kinase B-raf (Homo sapiens), P15056 [V600E] (P15056 whole entry V600E): as the sequence (P15056 whole entry) above, with V600E counted along it

[24] = biological target: Mast/stem cell growth factor receptor Kit (Homo sapiens) (UniProt P10721); assay: Inhibition of human c-KIT at 10 uM using poly[Glu:Tyr] (4:1) as substrate by [gamma-33P]-ATP assay relative to control
Sequence of Mast/stem cell growth factor receptor Kit (Homo sapiens) (P10721 whole entry): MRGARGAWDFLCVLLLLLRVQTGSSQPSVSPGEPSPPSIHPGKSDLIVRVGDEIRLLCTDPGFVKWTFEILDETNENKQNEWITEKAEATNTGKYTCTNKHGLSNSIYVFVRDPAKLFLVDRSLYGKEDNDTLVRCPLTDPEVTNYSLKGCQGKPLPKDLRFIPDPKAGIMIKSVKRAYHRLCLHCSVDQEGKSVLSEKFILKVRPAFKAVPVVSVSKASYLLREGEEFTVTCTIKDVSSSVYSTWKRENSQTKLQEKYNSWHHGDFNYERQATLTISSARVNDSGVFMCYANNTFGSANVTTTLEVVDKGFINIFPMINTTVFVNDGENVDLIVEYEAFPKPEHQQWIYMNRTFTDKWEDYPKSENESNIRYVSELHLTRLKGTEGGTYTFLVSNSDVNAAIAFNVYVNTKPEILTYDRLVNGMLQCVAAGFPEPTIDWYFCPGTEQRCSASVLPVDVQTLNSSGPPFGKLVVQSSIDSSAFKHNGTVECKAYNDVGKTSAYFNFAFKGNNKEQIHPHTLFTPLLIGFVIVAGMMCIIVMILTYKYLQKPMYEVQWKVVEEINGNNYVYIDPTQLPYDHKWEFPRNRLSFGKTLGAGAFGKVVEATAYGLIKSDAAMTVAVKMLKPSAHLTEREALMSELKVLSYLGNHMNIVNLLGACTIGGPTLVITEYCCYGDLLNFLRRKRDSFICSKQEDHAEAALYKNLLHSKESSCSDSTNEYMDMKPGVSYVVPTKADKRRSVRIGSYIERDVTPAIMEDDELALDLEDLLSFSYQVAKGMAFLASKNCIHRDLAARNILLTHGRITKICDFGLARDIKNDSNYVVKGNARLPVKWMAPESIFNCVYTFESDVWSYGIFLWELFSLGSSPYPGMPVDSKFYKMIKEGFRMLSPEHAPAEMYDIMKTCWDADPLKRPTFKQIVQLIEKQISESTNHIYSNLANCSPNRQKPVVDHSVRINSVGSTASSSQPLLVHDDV

[25] = biological target: Hepatocyte growth factor receptor (Homo sapiens, UniProt P08581); assay: Inhibition of human c-MET at 10 uM using KKKSPGEYVNIEFG as substrate by [gamma-33P]-ATP assay relative to control
[26] = biological target: RAF proto-oncogene serine/threonine-protein kinase (Homo sapiens, UniProt P04049); assay: Inhibition of human RAF1 at 10 uM using MEK1 (K97R) as substrate by [gamma-33P]-ATP assay relative to control
[27] = biological target: DNA-dependent protein kinase catalytic subunit (Homo sapiens) (UniProt P78527); assay: Inhibition of human DNAPK at 10 uM using EPPLSQEAFADLWKK as substrate by […]-ATP assay relative to control
[28] = biological target: Epidermal growth factor receptor (Homo sapiens) (UniProt P00533); assay: Inhibition of human EGFR at 10 uM using poly[Glu:Tyr] (4:1) as substrate by [gamma-33P]-ATP assay relative to control
[29] = biological target: Aurora kinase A (Homo sapiens) (UniProt O14965); assay: Inhibition of human Aurora A at 10 uM using [H-LRRASLG] as substrate by [gamma-33P]-ATP assay relative to control
[30] = biological target: ALK tyrosine kinase receptor (Homo sapiens) (UniProt Q9UM73); assay: Inhibition of human ALK at 10 uM using poly[Glu:Tyr] (4:1) as substrate by [gamma-33P]-ATP assay relative to control
Sequence of ALK tyrosine kinase receptor (Homo sapiens) (Q9UM73 19-1620 limits assumed): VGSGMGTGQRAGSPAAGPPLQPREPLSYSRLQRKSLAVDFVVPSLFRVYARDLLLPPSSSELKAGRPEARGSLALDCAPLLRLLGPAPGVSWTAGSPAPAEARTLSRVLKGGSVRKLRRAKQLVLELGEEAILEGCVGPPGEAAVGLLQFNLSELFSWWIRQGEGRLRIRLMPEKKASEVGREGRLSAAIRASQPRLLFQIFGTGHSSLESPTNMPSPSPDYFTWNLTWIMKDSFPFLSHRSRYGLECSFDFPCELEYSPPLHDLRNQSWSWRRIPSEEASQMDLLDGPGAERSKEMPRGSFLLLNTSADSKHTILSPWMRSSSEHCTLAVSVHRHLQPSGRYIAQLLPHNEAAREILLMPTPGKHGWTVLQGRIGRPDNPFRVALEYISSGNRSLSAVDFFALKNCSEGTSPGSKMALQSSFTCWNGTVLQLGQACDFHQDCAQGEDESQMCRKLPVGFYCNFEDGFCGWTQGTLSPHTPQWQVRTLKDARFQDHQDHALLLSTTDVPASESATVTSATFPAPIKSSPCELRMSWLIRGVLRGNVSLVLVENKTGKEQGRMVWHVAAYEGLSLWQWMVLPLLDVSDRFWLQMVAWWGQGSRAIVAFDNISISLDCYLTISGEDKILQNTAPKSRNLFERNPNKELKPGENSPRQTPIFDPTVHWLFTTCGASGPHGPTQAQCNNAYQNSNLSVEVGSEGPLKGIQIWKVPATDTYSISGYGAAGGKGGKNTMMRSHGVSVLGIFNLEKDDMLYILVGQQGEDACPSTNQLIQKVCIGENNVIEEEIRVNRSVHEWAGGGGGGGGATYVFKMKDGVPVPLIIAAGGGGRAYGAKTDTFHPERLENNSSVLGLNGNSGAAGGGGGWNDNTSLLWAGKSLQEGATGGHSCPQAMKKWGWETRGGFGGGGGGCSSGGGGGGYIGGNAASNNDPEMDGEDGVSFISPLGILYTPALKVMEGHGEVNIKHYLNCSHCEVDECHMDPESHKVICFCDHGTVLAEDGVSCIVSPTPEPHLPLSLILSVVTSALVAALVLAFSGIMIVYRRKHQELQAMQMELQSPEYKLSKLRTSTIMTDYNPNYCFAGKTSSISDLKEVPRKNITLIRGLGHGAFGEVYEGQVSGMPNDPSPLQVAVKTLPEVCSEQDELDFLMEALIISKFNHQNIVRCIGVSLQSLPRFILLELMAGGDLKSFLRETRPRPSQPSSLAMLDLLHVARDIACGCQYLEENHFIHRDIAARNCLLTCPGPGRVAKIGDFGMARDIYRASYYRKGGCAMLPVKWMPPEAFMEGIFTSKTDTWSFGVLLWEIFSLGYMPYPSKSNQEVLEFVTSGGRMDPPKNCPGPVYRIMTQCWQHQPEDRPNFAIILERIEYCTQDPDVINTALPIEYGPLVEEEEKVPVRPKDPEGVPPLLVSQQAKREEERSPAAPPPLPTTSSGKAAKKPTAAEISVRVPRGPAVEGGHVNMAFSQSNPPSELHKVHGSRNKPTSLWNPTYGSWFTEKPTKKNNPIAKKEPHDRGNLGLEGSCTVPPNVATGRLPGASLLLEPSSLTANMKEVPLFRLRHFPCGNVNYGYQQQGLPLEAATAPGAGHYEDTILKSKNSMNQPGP

[31] = biological target: Serine/threonine-protein kinase A-Raf (Homo sapiens) (UniProt P10398); assay: Inhibition of human ARAF at 10 uM using MEK1 as substrate by [gamma-33P]-ATP assay relative to control
[32] = biological target: RAC-alpha serine/threonine-protein kinase (Homo sapiens) (UniProt P31749); assay: Inhibition of human AKT1 at 10 uM using KGSGSGRPRTSSFAEG as substrate by [gamma-33P]-ATP assay relative to control
[33] = biological target: Tyrosine-protein kinase ABL1 (Homo sapiens) (UniProt P00519); assay: Inhibition of human ABL1 at 10 uM using EAIYAAPFAKKK as substrate by [gamma-33P]-ATP assay relative to control

SMILES: O=C(O)Cc1ccccc1Nc1c(Cl)cccc1Cl [DICLOFENAC]
inhibition in vivo at 50 mg/kg (Rattus norvegicus): 71.3%

pIC50 [1]: 5.07
SMILES: COc1ccc(-c2nn(-c3cccc(NC(=O)Nc4ccc(Cl)c(C(F)(F)F)c4)c3)cc2-c2ccncc2)cc1Cl

pIC50 [1]: < 4.52
SMILES: O=C(Nc1cccc(-n2cc(-c3ccncc3)c(-c3ccc(O)c(Cl)c3)n2)c1)Nc1ccc(Cl)c(C(F)(F)F)c1

pIC50 [1]: 4.84
SMILES: O=C(Nc1cccc(-n2cc(-c3ccncc3)c(-c3ccc(O)c(Cl)c3)n2)c1)Nc1ccc(Cl)c(Cl)c1

pIC50 [1]: 4.84
SMILES: O=C(Nc1cccc(-n2cc(-c3ccncc3)c(-c3ccc(O)c(Cl)c3)n2)c1)c1ccc(Cl)c(Cl)c1

pIC50 [1]: 5.55
SMILES: COc1ccc(-c2nn(-c3cccc(NC(=O)Nc4ccc(Cl)c(Cl)c4)c3)cc2-c2ccncc2)cc1Cl

pIC50 [1]: < 4.52
SMILES: O=C(Nc1cccc(-n2cc(-c3ccncc3)c(-c3ccc(O)c(Cl)c3)n2)c1)Nc1cccc(C(F)(F)F)c1

pIC50 [1]: < 4.52
SMILES: O=C(Nc1cccc(-n2cc(-c3ccncc3)c(-c3ccc(O)c(Cl)c3)n2)c1)c1cc(C(F)(F)F)cc(C(F)(F)F)c1

pIC50 [1]: 5.89
SMILES: COc1ccc(-c2nn(-c3cccc(NC(=O)c4ccc(Cl)c(Cl)c4)c3)cc2-c2ccncc2)cc1Cl

pIC50 [1]: < 4.52
SMILES: O=C(Nc1cccc(-n2cc(-c3ccncc3)c(-c3ccc(O)c(Cl)c3)n2)c1)c1ccc(N2CCOCC2)c(C(F)(F)F)c1

pIC50 [1]: 5.22
SMILES: COc1ccc(-c2nn(-c3cccc(NC(=O)c4ccc(N5CCOCC5)c(C(F)(F)F)c4)c3)cc2-c2ccncc2)cc1Cl

pIC50 [1]: < 4.52
SMILES: O=C(Nc1cccc(-n2cc(-c3ccncc3)c(-c3ccc(O)c(Cl)c3)n2)c1)Nc1cc(C(F)(F)F)cc(C(F)(F)F)c1

SMILES: C[S+]([O-])c1ccc(-c2nc(-c3ccc(F)cc3)c(-c3ccncc3)[nH]2)cc1 (stereo not given) [SB-203580]
pIC50 (THP-1): 7.70

pIC50 [1]: 4.91
SMILES: COc1ccc(-c2nn(-c3cccc(NC(=O)Nc4cccc(C(F)(F)F)c4)c3)cc2-c2ccncc2)cc1Cl

pIC50 [2]: 6.29
SMILES: COc1cccc(-c2nn(-c3ccccc3)cc2-c2ccncc2)c1

pIC50 [1]: 5.63
SMILES: COc1ccc(-c2nn(-c3cccc(NC(=O)c4cc(C(F)(F)F)cc(C(F)(F)F)c4)c3)cc2-c2ccncc2)cc1Cl

pIC50 [1]: 5.40
SMILES: COc1ccc(-c2nn(-c3cccc(NC(=O)Nc4ccccc4)c3)cc2-c2ccncc2)cc1Cl

SMILES: CCN(CC)CCOC(=O)c1ccc(N)cc1 [PROCAINE]
remaining at 0.5 h, 10 µM [3]: 1.2%
remaining at 2 h, 10 µM [4]: 0.2%
remaining at 0.5 h, 10 µM [5]: 89.9%
remaining at 2 h, 10 µM [6]: 42.7%

pIC50 [1]: < 4.52
SMILES: O=C(Nc1cccc(-n2cc(-c3ccncc3)c(-c3ccc(O)c(Cl)c3)n2)c1)c1cccc(C(F)(F)F)c1

remaining at 0.5 h, 10 µM [3]: 91.5%
remaining at 2 h, 10 µM [4]: 89.3%
remaining at 0.5 h, 10 µM [5]: 86.3%
remaining at 2 h, 10 µM [6]: 45.4%
SMILES: COc1ccc([C@@H]2Sc3ccccc3N(CCN(C)C)C(=O)[C@@H]2OC(C)=O)cc1 [DILTIAZEM]

pEC50 [7]: 5.71
pIC50 [1]: 6.51
inhibition [8]: 8.99%
inhibition [9]: -7.69%
inhibition [10]: 22.2%
inhibition [11]: 0.29%
inhibition [12]: 20.1%
inhibition [13]: -8.43%
inhibition [14]: 4.66%
inhibition [15]: -6.35%
inhibition [16]: 5.95%
inhibition [17]: 9%
inhibition [18]: -4.38%
inhibition [19]: 86.4%
inhibition [20]: 2.65%
inhibition [21]: -4.12%
inhibition [22]: 8.96%
inhibition [23]: 35.8%
inhibition [24]: 2.7%
inhibition [25]: 48.5%
inhibition [26]: 40.4%
inhibition [27]: 0.81%
inhibition [28]: 2.48%
inhibition [29]: -3.14%
inhibition [30]: -3.13%
inhibition [31]: 57%
inhibition [32]: 4.08%
inhibition [33]: -7.26%
SMILES: COc1ccc(-c2nn(-c3cccc(NC(=O)Nc4cc(C(F)(F)F)cc(C(F)(F)F)c4)c3)cc2-c2ccncc2)cc1Cl

pIC50 [1]: < 4.52
SMILES: O=C(Nc1ccccc1)Nc1cccc(-n2cc(-c3ccncc3)c(-c3ccc(O)c(Cl)c3)n2)c1
